The values below come from paper PMC11204923, “Marine Cytotoxin Santacruzamate A Derivatives as Potent HDAC1-3 Inhibitors and Their Synergistic Anti-Leukemia Effects with Venetoclax” (Marine Drugs, 2024).

One may read the inhibition as the change of the read-out against control, counted positive when it falls. For orientation: IC50 means the concentration at which inhibition is half-maximal. High values mean lower potency, low ones higher potency.

Holding throughout (assay type): biochemical
One assay concerns the target T1, HDAC1 (Homo sapiens, UniProt Q13547).
T1 construct: purchased BPS Bioscience
In words: In vitro HDAC inhibition fluorescence assay, HDAC1. The conditions noted are these: for inhibition at 0.01 µM: 10 nM; for inhibition at 0.01 µM / inhibition at 0.1 µM: read-out: Inhibition Rate of HDAC1 (%); for inhibition at 0.1 µM: 100 nM. The procedure: (§1) All of the HDAC enzymes were purchased from BPS Bioscience. In vitro HDAC inhibition assays were conducted as previously described. In brief, 20 μL of recombinant HDAC enzyme solution (HDAC1-9, 11) was mixed with various concentrations of the tested compound (20 μL). […] After incubation at 37 °C for 2 h, the catalysis was stopped by the addition of 10 μL of developer containing 30 mg/mL trypsin and 6 μM trichostatin A (TSA). Then, 30 min later, the fluorescence intensity was measured using a microplate reader at excitation and emission wavelengths of 360 and 460 nm, respectively. The inhibition ratios were calculated from the fluorescence intensity readings of tested wells relative to those of control wells, and the IC50 curves and values were determined by GraphPad Prism 6.0, using the “log(inhibitor) vs. normalized response-variable slope” function.

Another assay has as its target T2, HDAC3 (Homo sapiens, UniProt O15379).
T2 construct: purchased BPS Bioscience
In words: In vitro HDAC inhibition fluorescence assay, HDAC3. The conditions noted are these: for inhibition at 0.01 µM: 10 nM; for inhibition at 0.01 µM / inhibition at 0.1 µM: read-out: Inhibition Rate of HDAC3 (%); for inhibition at 0.1 µM: 100 nM. The method, then: as §1

For the next assay, the target named is T3, HDAC2 (Homo sapiens, UniProt Q92769).
T3 construct: purchased BPS Bioscience
In words: In vitro HDAC inhibition fluorescence assay, HDAC2. The method, then:
as §1

T1 sequence (Q13547 whole entry): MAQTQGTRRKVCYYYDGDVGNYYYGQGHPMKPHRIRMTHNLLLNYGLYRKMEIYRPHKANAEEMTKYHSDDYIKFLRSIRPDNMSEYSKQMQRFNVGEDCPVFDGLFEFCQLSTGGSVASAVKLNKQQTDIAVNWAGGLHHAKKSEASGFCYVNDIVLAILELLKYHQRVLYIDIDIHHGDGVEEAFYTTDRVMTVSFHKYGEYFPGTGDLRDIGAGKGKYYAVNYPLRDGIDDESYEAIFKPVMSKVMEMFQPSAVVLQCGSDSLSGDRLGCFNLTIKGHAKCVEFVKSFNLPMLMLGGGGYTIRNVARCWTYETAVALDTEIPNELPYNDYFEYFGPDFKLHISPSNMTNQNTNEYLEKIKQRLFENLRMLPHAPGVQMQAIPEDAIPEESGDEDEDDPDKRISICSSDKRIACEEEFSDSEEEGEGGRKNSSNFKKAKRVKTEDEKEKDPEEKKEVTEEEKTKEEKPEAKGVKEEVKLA
T3 sequence (Q92769 whole entry): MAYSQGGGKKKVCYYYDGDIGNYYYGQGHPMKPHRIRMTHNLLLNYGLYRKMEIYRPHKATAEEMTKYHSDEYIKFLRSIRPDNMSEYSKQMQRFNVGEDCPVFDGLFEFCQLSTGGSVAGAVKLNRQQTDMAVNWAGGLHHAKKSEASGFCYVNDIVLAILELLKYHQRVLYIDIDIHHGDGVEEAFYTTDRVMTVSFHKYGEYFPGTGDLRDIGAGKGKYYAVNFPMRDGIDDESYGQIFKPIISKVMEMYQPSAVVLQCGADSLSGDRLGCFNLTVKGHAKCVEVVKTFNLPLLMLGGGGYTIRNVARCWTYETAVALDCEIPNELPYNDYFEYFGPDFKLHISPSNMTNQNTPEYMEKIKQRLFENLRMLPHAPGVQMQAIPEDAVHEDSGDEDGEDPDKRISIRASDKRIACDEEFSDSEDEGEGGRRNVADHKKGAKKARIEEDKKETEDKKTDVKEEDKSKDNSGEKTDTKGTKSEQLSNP
T2 sequence (O15379 whole entry): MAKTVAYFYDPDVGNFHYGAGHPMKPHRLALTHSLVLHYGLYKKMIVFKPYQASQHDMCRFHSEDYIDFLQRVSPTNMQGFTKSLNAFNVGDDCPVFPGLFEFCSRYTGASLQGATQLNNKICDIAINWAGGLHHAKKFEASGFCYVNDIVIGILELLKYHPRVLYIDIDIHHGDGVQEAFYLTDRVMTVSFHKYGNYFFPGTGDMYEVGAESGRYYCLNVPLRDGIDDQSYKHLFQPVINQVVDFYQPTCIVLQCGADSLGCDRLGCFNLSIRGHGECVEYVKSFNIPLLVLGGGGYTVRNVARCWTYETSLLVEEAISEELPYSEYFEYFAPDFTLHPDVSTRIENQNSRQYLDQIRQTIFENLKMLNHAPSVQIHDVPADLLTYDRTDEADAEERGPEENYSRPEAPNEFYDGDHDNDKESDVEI
T2 sequence (Q9Y618 395-489 partner limits assumed): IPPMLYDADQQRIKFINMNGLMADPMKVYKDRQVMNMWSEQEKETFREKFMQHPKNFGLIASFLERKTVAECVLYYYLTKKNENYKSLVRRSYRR

Regarding `CCCNNC(=O)CCC(=O)NCCc1ccccc1` [Compound 9a, 4-Oxo-N-phenethyl-4-(2-propylhydrazineyl)butanamide], at HDAC1, the inhibition at 0.01 µM worked out at 2.2 ± 2.3% and the inhibition at 0.1 µM is 0.3 ± 1.7%. In addition, on HDAC3, the inhibition at 0.01 µM was -0.6 ± 1.9% and the inhibition at 0.1 µM is 11.1 ± 0.5%.
In the case of `CCCNNC(=O)CCCC(=O)NCCc1ccccc1` [Compound 9b, 5-Oxo-N-phenethyl-5-(2-propylhydrazineyl)pentanamide], on HDAC1, the inhibition at 0.01 µM was -9.2 ± 1.4% and the inhibition at 0.1 µM amounted to 3.1 ± 1.1%. At HDAC3, the inhibition at 0.01 µM was found to be 11.5 ± 0.7% and the inhibition at 0.1 µM stood at 53.7%.
For `CCCNNC(=O)CCCCC(=O)NCCc1ccccc1` [Compound 9c, 6-Oxo-N-phenethyl-6-(2-propylhydrazineyl)hexanamide], in that order: -6 ± 1.2%, 27.5 ± 0.6%, 18.2 ± 2.9% and 61.9 ± 0.7%.
As to `CCCNNC(=O)CCCCCC(=O)NCCc1ccccc1` [Compound 9d, 7-Oxo-N-phenethyl-7-(2-propylhydrazineyl)heptanamide], the figures for the inhibition at 0.01 µM at HDAC1 and at HDAC3 were 5.58 ± 2.39% and 21.2 ± 1.5%, respectively. Further, the inhibition at 0.1 µM at HDAC1 is 52 ± 2.86%; on HDAC3 it was 76.82 ± 0.47%.
The corresponding values for `CCCNNC(=O)CCCCCCC(=O)NCCc1ccccc1` [Compound 9e, 8-Oxo-N-phenethyl-8-(2-propylhydrazineyl)octanamide] are 12 ± 0.9%, 38.8 ± 3%, 65.6 ± 0.1% and 85.5 ± 0.6%.
For `CCCNNC(=O)CCCCCCCC(=O)NCCc1ccccc1` [Compound 9f, 9-Oxo-N-phenethyl-9-(2-propylhydrazineyl)nonanamide], in that order: 15.9 ± 1.6%, 19.6 ± 8%, 57.1 ± 0.7% and 79.9 ± 0.8%.
Consider `CCCNNC(=O)c1ccc(C(=O)NCCc2ccccc2)cc1` [Compound 9g, N-Phenethyl-4-(2-propylhydrazine-1-carbonyl)benzamide], for which, on HDAC1, the inhibition at 0.01 µM is 23.5 ± 2% and the inhibition at 0.1 µM amounted to 30.1 ± 2.1%. In addition, on HDAC3, the inhibition at 0.01 µM turned out to be 11.2 ± 8% and the inhibition at 0.1 µM turned out to be 50.6 ± 5.4%.
For `CCCNNC(=O)c1ccc(CC(=O)NCCc2ccccc2)cc1` [Compound 9h, N-Phenethyl-2-(4-(2-propylhydrazine-1-carbonyl)phenyl)acetamide], at HDAC1, the inhibition at 0.01 µM was determined as 5.61 ± 1.6% and the inhibition at 0.1 µM worked out at 10.1 ± 0.7%. Further, at HDAC3, the inhibition at 0.01 µM is -4.61 ± 13.6% and the inhibition at 0.1 µM is -5.9 ± 0.6%.
For `CCCNNC(=O)Cc1ccc(C(=O)NCCc2ccccc2)cc1` [Compound 9i, 4-(2-Oxo-2-(2-propylhydrazineyl)ethyl)-N-phenethylbenzamide], in that order: 12.5 ± 0.2%, 16.4 ± 1.2%, -0.8 ± 4.2% and -3.1 ± 3.4%.
`CCCNNC(=O)C=Cc1ccc(C(=O)NCCc2ccccc2)cc1` [Compound 9j, 4-(3-Oxo-3-(2-propylhydrazineyl)prop-1-en-1-yl)-N-phenethylbenzamide] gave an IC50 against HDAC2 of 69.4 ± 3.4 nM. Also, at HDAC1, the midpoint of inhibition, the IC50, lay at 35.8 ± 3.6 nM; the inhibition at 0.01 µM amounted to 32.8 ± 0.1%; the inhibition at 0.1 µM is 76.7 ± 0.3%.
The corresponding values for `CCCNNC(=O)CCc1ccc(C(=O)NCCc2ccccc2)cc1` [Compound 9k, 4-(3-Oxo-3-(2-propylhydrazineyl)propyl)-N-phenethylbenzamide] are 374 ± 21.7 nM, 122 ± 18.6 nM, 23.1 ± 2.1% and 67.9 ± 1.4%.
Consider `CCCNNC(=O)c1ccc(C=CC(=O)NCCc2ccccc2)cc1` [Compound 9l, N-Phenethyl-3-(4-(2-propylhydrazine-1-carbonyl)phenyl)acrylamide], for which, at HDAC2, the IC50 stood at 116 ± 11.4 nM. Moreover, on HDAC1, the 50% inhibitory concentration (IC50) stood at 37.4 ± 5.8 nM, the inhibition at 0.01 µM was 36.5 ± 2.1% and the inhibition at 0.1 µM came out at 74.5 ± 0.3%. Also, on HDAC3, the concentration for half-maximal inhibition (IC50) worked out at 6 ± 1.7 nM, the inhibition at 0.01 µM came out at 78.1 ± 0.1% and the inhibition at 0.1 µM came out at 87.2 ± 2.6%.
Regarding `CCCNNC(=O)c1ccc(CCC(=O)NCCc2ccccc2)cc1` [Compound 9m, N-Phenethyl-3-(4-(2-propylhydrazine-1-carbonyl)phenyl)propanamide], on HDAC1, the inhibition at 0.01 µM came to 21.2 ± 0.9% and the inhibition at 0.1 µM came out at 67.3 ± 2.8%. For the same molecule, on HDAC3, the inhibition at 0.01 µM stood at 27.2 ± 2.7% and the inhibition at 0.1 µM was determined as 80.7 ± 0.7%.
For the molecule `CCCNNC(=O)CCCNC(=O)Cc1ccccc1` [Compound 14a, N-(4-Oxo-4-(2-propylhydrazineyl)butyl)-2-phenylacetamide], at HDAC1, the inhibition at 0.01 µM is -7 ± 2.6% and the inhibition at 0.1 µM stood at 2.3 ± 2.4%. On HDAC3, the inhibition at 0.01 µM stood at 2.4 ± 2.9% and the inhibition at 0.1 µM was determined as 18.2 ± 3.3%.
Turning to `CCCNNC(=O)CCCCNC(=O)Cc1ccccc1` [Compound 14b, N-(5-Oxo-5-(2-propylhydrazineyl)pentyl)-2-phenylacetamide], on HDAC1, the inhibition at 0.01 µM is -9.04 ± 0.1% and the inhibition at 0.1 µM worked out at 7.7 ± 2.1%. In addition, at HDAC3, the inhibition at 0.01 µM was determined as 16.6 ± 3.2% and the inhibition at 0.1 µM came to 45.2 ± 1.1%.
The corresponding values for `CCCNNC(=O)CCCCCNC(=O)Cc1ccccc1` [Compound 14c, N-(6-Oxo-6-(2-propylhydrazineyl)hexyl)-2-phenylacetamide] are -6.8 ± 2.1%, 14.4 ± 2.4%, 16.1 ± 3.3% and 54.4 ± 0.7%.
For the molecule `CCCNNC(=O)CCCCCCNC(=O)Cc1ccccc1` [Compound 14d, N-(7-Oxo-7-(2-propylhydrazineyl)heptyl)-2-phenylacetamide], on HDAC1, the inhibition at 0.01 µM was 1.9 ± 3.7% and the inhibition at 0.1 µM stood at 43.2 ± 0.1%. Further, at HDAC3, the inhibition at 0.01 µM was determined as 21.2 ± 1.5% and the inhibition at 0.1 µM was 76.8 ± 0.4%.
As to `CCCNNC(=O)CCCCCCCNC(=O)Cc1ccccc1` [Compound 14e, N-(8-Oxo-8-(2-propylhydrazineyl)octyl)-2-phenylacetamide], the inhibition at 0.01 µM on HDAC1 came to 8.8 ± 3.7%; at HDAC3 it was 23.1 ± 0.1%. Also, the figures for the inhibition at 0.1 µM at HDAC1 and on HDAC3 were 51.6 ± 0.9% and 71.5 ± 0.7%, respectively.
For the molecule `CCCNNC(=O)CCCCCCCCNC(=O)Cc1ccccc1` [Compound 14f, N-(9-Oxo-9-(2-propylhydrazineyl)nonyl)-2-phenylacetamide], at HDAC1, the inhibition at 0.01 µM came out at 9.8 ± 0.4% and the inhibition at 0.1 µM amounted to 32.7 ± 1.2%. Besides, on HDAC3, the inhibition at 0.01 µM was found to be 3.2 ± 10.6% and the inhibition at 0.1 µM is 48.8 ± 1.1%.
For `CCCNNC(=O)C=Cc1ccc(C(=O)NC2Cc3ccccc3C2)cc1` [Compound 19a, N-(2,3-Dihydro-1H-inden-2-yl)-4-(3-oxo-3-(2-propylhydrazineyl)prop-1-en-1-yl)benzamide], in that order: 8.1 ± 0.3%, 39.9 ± 0.6%, 37.4 ± 0.1% and 78.2 ± 0.5%.
The corresponding values for `CCCNNC(=O)C=Cc1ccc(C(=O)N2CCc3ccccc3C2)cc1` [Compound 19b, N′-Propyl-3-(4-(1,2,3,4-tetrahydroisoquinoline-2-carbonyl)phenyl)acrylohydrazide] are -4.6 ± 2.1%, -0.4 ± 1.7%, -1.1 ± 2.3% and 18.3 ± 0.5%.
The corresponding values for `CCCNNC(=O)C=Cc1ccc(C(=O)N2CCc3cc(Br)ccc3C2)cc1` [Compound 19c, 3-(4-(6-Bromo-1,2,3,4-tetrahydroisoquinoline-2-carbonyl)phenyl)-N′-propylacrylohydrazide] are 1.5 ± 1.5%, 27.2 ± 2.8%, 4.1 ± 9.9% and 38.1 ± 0.8%.
As to `CCCNNC(=O)C=Cc1ccc(C(=O)N2CCc3ccc(Br)cc3C2)cc1` [Compound 19d, 3-(4-(7-Bromo-1,2,3,4-tetrahydroisoquinoline-2-carbonyl)phenyl)-N′-propylacrylohydrazide], at HDAC1, the inhibition at 0.01 µM is -1.4 ± 0.5% and the inhibition at 0.1 µM was 38.2 ± 2.3%. Besides, on HDAC3, the inhibition at 0.01 µM is -0.4 ± 3.4% and the inhibition at 0.1 µM was 34.8 ± 1.2%.
For `CCCNNC(=O)C=Cc1ccc(CNc2ccccc2)cc1` [Compound 25a, 3-(4-((Phenylamino)methyl)phenyl)-N′-propylacrylohydrazide], half-maximal inhibition against HDAC2 (IC50) required 224 ± 19.4 nM. On HDAC1, the IC50 was 96.5 ± 1.1 nM, the inhibition at 0.01 µM is 14.2 ± 1.5% and the inhibition at 0.1 µM worked out at 60.7 ± 0.7%. Also, at HDAC3, inhibition was half-maximal at 8.2 ± 0.9 nM (IC50), the inhibition at 0.01 µM is 49.2 ± 0.9% and the inhibition at 0.1 µM turned out to be 80.4 ± 0.7%.
For `CCCNNC(=O)C=Cc1ccc(CNc2cccc3ccccc23)cc1` [Compound 25f, 3-(4-((Naphthalen-1-ylamino)methyl)phenyl)-N′-propylacrylohydrazide], the inhibition at 0.01 µM is 31.3% at HDAC1 and 25.7 ± 1.3% at HDAC3. The inhibition at 0.1 µM is 71.2 ± 0.9% at HDAC1 and 60.7 ± 0.5% at HDAC3.
